Earlier results, collected in patent US20220175791A1, “Methods for Predicting Neisseria Spp. Susceptibility to Cefixime” (priority 2019, published 2022).

C=CC1=C(C(=O)O)N2C(=O)[C@@H](NC(=O)/C(=N\OCC(=O)O)c3csc(N)n3)[C@H]2SC1 [cefixime, Cefixime]
tolerability (even in penicillin allergic patients): very well tolerated | bioavailability (human, in vivo, po): high
